According to ChEMBL document CHEMBL2413019, “Structure-activity-relationship studies on dihydrofuran-fused perhydrophenanthrenes as an anti-Alzheimer's disease agent” (Bioorg Med Chem, 2013):
Active and inactive are the calls of the source. No cut-off for these calls is given here.

Key:
[1] = Cytotoxicity against Sprague-Dawley rat cortical neurons assessed as cell viability after 48 hrs by CellTiter-Glo luminescent assay; conditions: cortical neurone
Cortical neurone [2] = test: Antialzheimer activity in amyloid beta (25 to 35)-treated Sprague-Dawley rat cortical neurons assessed as dendrite extension activity at 1 uM after 4 days by fluorescence microscopic analysis; type: functional
Cortical neurone [3] = test: Antialzheimer activity in amyloid beta (25 to 35)-treated Sprague-Dawley rat cortical neurons assessed as dendrite extension activity at 10 uM after 4 days by fluorescence microscopic analysis; type: functional
[4] = Cytotoxicity against Sprague-Dawley rat cortical neurons assessed as cell viability at 1 to 10 uM after 48 hrs by CellTiter-Glo luminescent assay; conditions: cortical neurone

Row | SMILES | Activity [1] | Activity (Cortical neurone [2]) | Activity (Cortical neurone [3]) | Activity [4]
1 | N#C[C@]12CC=CC3=CO[C@H](Cc4cc(-c5ccccc5)c(O)cc41)[C@@H]32 | Dose-dependent effect | – | – | –
2 | N#C[C@]12CC=CC3=CO[C@H](Cc4ccc(O)cc41)[C@@H]32 | Dose-dependent effect | – | – | –
3 | N#C[C@]12CCC3(OCCO3)C3=CO[C@H](Cc4cc(C#CCCO)c(O)cc41)[C@@H]32 | Dose-dependent effect | – | – | –
4 | C#Cc1cc2c(cc1O)[C@]1(C#N)CC=CC3=CO[C@H](C2)[C@@H]31 | Dose-dependent effect | inactive | Active | –
5 | N#C[C@]12CC[C@H](O)C3=CO[C@H](Cc4ccc(O)cc41)[C@@H]32 | Dose-dependent effect | – | – | –
6 | N#C[C@]12CCC[C@@H]3CO[C@H](Cc4ccc(O)cc41)[C@@H]32 | Dose-dependent effect | inactive | Active | –
7 | N#C[C@]12CCC3(OCCO3)C3=CO[C@H](Cc4cc(I)c(O)cc41)[C@@H]32 | Dose-dependent effect | – | – | –
8 | C#Cc1cc2c(cc1O)[C@]1(C#N)CCC3(OCCO3)C3=CO[C@H](C2)[C@@H]31 | Dose-dependent effect | inactive | Active | –
9 | N#C[C@]12CC=CC3=CO[C@H](Cc4cc(C#CCCO)c(O)cc41)[C@@H]32 | Dose-dependent effect | Active | inactive | –
10 | CCOc1cc2c(cc1O)[C@]1(C#N)CCC3(OCCO3)C3=CO[C@H](C2)[C@@H]31 | – | Active | – | –
11 | N#C[C@]12CC[C@H](O)[C@@H]3CO[C@H](Cc4ccc(O)cc41)[C@@H]32 | Dose-dependent effect | – | – | –
12 | N#C[C@]12CCC3(OCCO3)[C@@H]3CO[C@H](Cc4ccc(O)cc41)[C@@H]32 | – | Active | – | –
13 | N#C[C@]12CCC3(OCCO3)C3=CO[C@H](Cc4ccc(O)cc41)[C@@H]32 | – | – | – | Non-toxic
14 | Oc1ccc2c(c1)[C@@H]1CCC3(OCCO3)C3=CO[C@H](C2)[C@@H]31 | – | inactive | – | –
15 | CCCCCCCCC/C=C/c1cc2c(cc1O)[C@]1(C#N)CCC3(OCCO3)C3=CO[C@H](C2)[C@@H]31 | Dose-dependent effect | Active | inactive | –
16 | N#C[C@]12CCC3(OCCO3)C3=CO[C@H](Cc4cc(-c5ccccc5)c(O)cc41)[C@@H]32 | Dose-dependent effect | – | – | –
17 | N#C[C@]12CCC3(OCCO3)C3=CO[C@H](Cc4cc(O)c(O)cc41)[C@@H]32 | – | inactive | – | –
18 | N#C[C@]12CCC3(OCCO3)C3=CO[C@H](Cc4cc(Sc5ccccc5)c(O)cc41)[C@@H]32 | – | Active | – | –
